From patent US20230293526A1, “METHOD FOR TREATING CANCER WITH A REVERSE TRANSCRIPTASE INHIBITOR” (PrimeFour Therapeutics, Inc., priority 2020, published 2023)

Columns and labels:
[1] = system: human LINE-1; experiment: Human LINE-1 (L1) retrotransposition dual-luciferase reporter assay in HeLa cells; type: cell-based; settings: Homo sapiens, HeLa, 72 h, read-out: Human LINE-1 IC50 (Human L1 activity inhibition)
Method in brief: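 Compound dilution series (final DMSO 0.2%) added right after transfecting HeLa cells with the pYX017 L1 dual-luciferase reporter; 72 h culture at 37 °C, 5% CO2, triplicates. IC50 fitted by non-linear logistic regression to firefly-to-Renilla luminescence ratio (×10,000).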

[2] = system: cancer cell lines; experiment: Cancer cell proliferation activity of representative nucleosides, CellTiterGlo 72 h (Example 7, Tables 8 and 9); type: cell-based; settings: 72 h
Method in brief: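 Percent viability was set against 0.1% DMSO (100%) and 10 μM staurosporine (0%), with signal from CellTiterGlo luminescence. Dose-response treatment began one day after seeding and lasted 72 h at 37° C under 5% or 10% CO2, with 0.1% final DMSO.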

C#C[C@]1(CO)O[C@@H](n2cc(F)c(N)nc2=O)C[C@@H]1O [compound 9]
IC50 [1]: 0.021 µM
IC50 ([2]; 72 h, 5637, bladder): 0.81 µM
IC50 ([2]; CLS439, bladder): > 50 µM
IC50 ([2]; HS729, muscle): > 50 µM
IC50 ([2]; J82, bladder): 1.16 µM
IC50 ([2]; JAR, placenta): 7.25 µM
IC50 ([2]; MT3, breast): 1.46 µM
IC50 ([2]; PC3, prostate): 6.33 µM
IC50 ([2]; RD, muscle): 4.22 µM
IC50 ([2]; T24, bladder): 3.76 µM
IC50 ([2]; Homo sapiens, 22Rv1, 72 h, 22RV1, prostate): 0.55 µM
IC50 ([2]; Homo sapiens, 786-0, 72 h, 786O, kidney): 3.54 µM
IC50 ([2]; Homo sapiens, A204, 72 h, A204, muscle): 9.82 µM
IC50 ([2]; Homo sapiens, A549, 72 h, A549, lung): 1.24 µM
IC50 ([2]; Homo sapiens, A673, 72 h, A673, bone): 1.96 µM
IC50 ([2]; Homo sapiens, A2780, 72 h, A2780, ovary): 4.18 µM
IC50 ([2]; Homo sapiens, A-375, 72 h, A375, skin): > 50 µM
IC50 ([2]; Homo sapiens, A-431, 72 h, A431, skin): 0.11 µM
IC50 ([2]; Homo sapiens, ACHN, kidney): 1.05 µM
IC50 ([2]; Homo sapiens, ASPC1, 72 h, ASPC1, pancreas): 2.58 µM
IC50 ([2]; Homo sapiens, BT-20, 72 h, BT20, breast): > 50 µM
IC50 ([2]; Homo sapiens, BXPC-3, 72 h, BXPC3, pancreas): 0.23 µM
IC50 ([2]; Homo sapiens, C-33-A, C33A, endometrial): 4.56 µM
IC50 ([2]; Homo sapiens, CAKI-1, 72 h, CAKI1, kidney): > 50 µM
IC50 ([2]; Homo sapiens, COLO 205, 72 h, COLO205, colon): 0.91 µM
IC50 ([2]; Homo sapiens, COLO-678, 72 h, COLO678, colon): > 50 µM
IC50 ([2]; Homo sapiens, Ca-Ski, CASKI, endometrial): 11.6 µM
IC50 ([2]; Homo sapiens, Caco-2, 72 h, CACO2, colon): > 50 µM
IC50 ([2]; Homo sapiens, Calu-6, 72 h, CALU6, lung): > 50 µM
IC50 ([2]; Homo sapiens, DLD-1, 72 h, DLD1, colon): 4.35 µM
IC50 ([2]; Homo sapiens, DU-145, 72 h, DU145, prostate): 2.42 µM
IC50 ([2]; Homo sapiens, EFO-21, 72 h, EFO21, ovary): 2.41 µM
IC50 ([2]; Homo sapiens, EJ-28, 72 h, EJ28, bladder): 2.21 µM
IC50 ([2]; Homo sapiens, Granta-519, 72 h, GRANTA-519, hematological): 3.24 µM
IC50 ([2]; Homo sapiens, HCT-15, 72 h, HCT15, colon): 4.08 µM
IC50 ([2]; Homo sapiens, HCT-116, 72 h, HCT116, colon): > 50 µM
IC50 ([2]; Homo sapiens, HEK293, 72 h, HEK293, kidney): 7.63 µM
IC50 ([2]; Homo sapiens, HL-60, 72 h, HL-60, hematological): 4.04 µM
IC50 ([2]; Homo sapiens, HT-29, 72 h, HT29, colon): 1.47 µM
IC50 ([2]; Homo sapiens, HT-1080, 72 h, HT1080, connective tissue): 2.88 µM
IC50 ([2]; Homo sapiens, HeLa, endometrial): > 50 µM
IC50 ([2]; Homo sapiens, HepG2, 72 h, HEPG2, liver): 1.6 µM
IC50 ([2]; Homo sapiens, Hs-578T, HS578T, breast): > 50 µM
IC50 ([2]; Homo sapiens, IGROV-1, 72 h, IGROV1, ovary): 5.01 µM
IC50 ([2]; Homo sapiens, IMR-90, 72 h, IMR90, lung): > 50 µM
IC50 ([2]; Homo sapiens, JEG-3, 72 h, JEG3, placenta): 0.99 µM
IC50 ([2]; Homo sapiens, JIMT-1, 72 h, JIMT1, breast): 4.47 µM
IC50 ([2]; Homo sapiens, K562, 72 h, K-562, hematological): 4.38 µM
IC50 ([2]; Homo sapiens, Kasumi 1, 72 h, KASUMI-1, hematological): > 50 µM
IC50 ([2]; Homo sapiens, L-363, 72 h, L-363, hematological): 1.96 µM
IC50 ([2]; Homo sapiens, LoVo, colon): 1.62 µM
IC50 ([2]; Homo sapiens, MCF7, 72 h, MCF7, breast): 1.19 µM
IC50 ([2]; Homo sapiens, MDA-MB-231, 72 h, MDAMB231, breast): > 50 µM
IC50 ([2]; Homo sapiens, MDA-MB-435, 72 h, MDAMB435, skin): 4.39 µM
IC50 ([2]; Homo sapiens, MDA-MB-436, 72 h, MDAMB436, breast): 1.37 µM
IC50 ([2]; Homo sapiens, MDA-MB-468, 72 h, MDAMB468, breast): > 50 µM
IC50 ([2]; Homo sapiens, MG-63, 72 h, MG63, bone): 2.44 µM
IC50 ([2]; Homo sapiens, MHH-ES-1, 72 h, MHHES1, bone): 1.53 µM
IC50 ([2]; Homo sapiens, MIA PaCa-2, 72 h, MIAPACA2, pancreas): 3.75 µM
IC50 ([2]; Homo sapiens, MINO, hematological): 3.74 µM
IC50 ([2]; Homo sapiens, MV4-11, 72 h, MV4-11, hematological): 0.39 µM
IC50 ([2]; Homo sapiens, NCI-H23, 72 h, NCI-H23, lung): 2.42 µM
IC50 ([2]; Homo sapiens, NCI-H82, 72 h, NCIH82, lung): 2.35 µM
IC50 ([2]; Homo sapiens, NCI-H292, 72 h, NCIH292, lung): > 50 µM
IC50 ([2]; Homo sapiens, NCI-H460, 72 h, NCIH460, ung): 1.06 µM
IC50 ([2]; Homo sapiens, OVCAR-3, 72 h, OVCAR3, ovary): 5.6 µM
IC50 ([2]; Homo sapiens, OVCAR-4, 72 h, OVCAR4, ovary): > 50 µM
IC50 ([2]; Homo sapiens, PANC-1, 72 h, PANC1, pancreas): 6.4 µM
IC50 ([2]; Homo sapiens, PLC-PRF-5, 72 h, PLCPRF5, liver): 3.24 µM
IC50 ([2]; Homo sapiens, Panc1005, 72 h, PANC1005, pancreas): 16.4 µM
IC50 ([2]; Homo sapiens, Ramos, hematological): 5.3 µM
IC50 ([2]; Homo sapiens, SAOS-2, 72 h, SAOS2, bone): 4.72 µM
IC50 ([2]; Homo sapiens, SF-268, 72 h, SF268, brain): 1.65 µM
IC50 ([2]; Homo sapiens, SF-295, 72 h, SF295, brain): 4.49 µM
IC50 ([2]; Homo sapiens, SK-BR-3, 72 h, SKBR3, breast): 0.12 µM
IC50 ([2]; Homo sapiens, SK-HEP1, 72 h, SKHEP1, liver): 1.29 µM
IC50 ([2]; Homo sapiens, SK-LMS-1, 72 h, SKLMS1, uterus): 5.61 µM
IC50 ([2]; Homo sapiens, SK-MEL-5, 72 h, SKMEL5, skin): 5.52 µM
IC50 ([2]; Homo sapiens, SK-MEL-28, 72 h, SKMEL28, skin): > 50 µM
IC50 ([2]; Homo sapiens, SK-N-AS, SKNAS, brain): > 50 µM
IC50 ([2]; Homo sapiens, SK-N-SH, SKNSH, brain): 2.44 µM
IC50 ([2]; Homo sapiens, SK-OV-3, 72 h, SKOV3, ovary): 1.64 µM
IC50 ([2]; Homo sapiens, SNB-75, 72 h, SNB75, brain): > 50 µM
IC50 ([2]; Homo sapiens, SU-DHL10, 72 h, SU-DHL-10, hematological): 3.15 µM
IC50 ([2]; Homo sapiens, SU-DHL-6, 72 h, SU-DHL-6, hematological): 4.69 µM
IC50 ([2]; Homo sapiens, SW-620, 72 h, SW620, colon): 0.91 µM
IC50 ([2]; Homo sapiens, TE-671, 72 h, TE671, muscle): 5.9 µM
IC50 ([2]; Homo sapiens, THP-1, 72 h, THP-1, hematological): 1.12 µM
IC50 ([2]; Homo sapiens, U2OS, bone): > 50 µM
IC50 ([2]; Homo sapiens, U-87 MG, U87MG, brain): 11.9 µM
IC50 ([2]; Homo sapiens, UMUC3, 72 h, UMUC3, bladder): 3.39 µM
IC50 ([2]; Homo sapiens, UO-31, 72 h, UO31, kidney): > 50 µM
IC50 ([2]; Homo sapiens, WSU-NHL, hematological): 3.53 µM
IC50 ([2]; NCI-H358M, NCIH358M, lung): > 50 µM
IC50 ([2]; PBMC, hematological): > 50 µM
IC50 ([2]; RD-ES, RDES, bone): 3.93 µM
